A compilation of properties of binary mixtures (doi:10.1016/j.molliq.2015.11.008)

Test: xn = mol fraction of the nth substance listed
Settings: 298.15 K, 101 kPa

CC(=O)[O-].CC[NH2+]CC + O
Settings | electrical conductivity [S/m] | viscosity [mPa·s]
x1 = 0.0079 | 1.4 | –
x1 = 0.0285 | 2.35 | –
x1 = 0.0365 | 2.46 | –
x1 = 0.0444 | 2.49 | –
x1 = 0.0602 | 2.47 | –
x1 = 0.0777 | 2.33 | –
x1 = 0.098 | – | 5.81
x1 = 0.298 | – | 26.8
x1 = 0.2995 | 0.965 | –
x1 = 0.3994 | 0.669 | –
x1 = 0.403 | – | 40.7
x1 = 0.4992 | 0.525 | –
x1 = 0.501 | – | 48.1
x1 = 0.597 | – | 53.1
x1 = 0.599 | 0.407 | –
x1 = 0.662 | – | 54.6
x1 = 0.794 | 0.308 | –
x1 = 0.805 | – | 55.7
x1 = 0.8986 | 0.282 | –
x2 = 0.0048 | 0.262 | –
